Experimental data reported in patent publication US20200338064A1, “HIGH CONCENTRATION LOCAL ANESTHETIC FORMULATIONS” (priority 2007, published 2020).

Assay: Solubility and compatibility of lidocaine and lidocaine HCl at 40% w/w in solvent blends
Type: physicochemical
Conditions: two weeks at accelerated conditions versus initial
Description: The solubility and compatibility of lidocaine and lidocaine HCl in solvents typically used in topical pharmaceutical products was assessed in order to direct the formulation development efforts.
Initially, the solubility of lidocaine and lidocaine hydrochloride was evaluated in single solvents with varying lipophilicity. […] Based on the single solvent data, a compatibility study was initiated to evaluate the chemical stability of the drug at a concentration of 40% w/w in a variety of solvent blends that would form the base of potential prototype gel or cream formulations.

CCN(CC)CC(=O)Nc1c(C)cccc1C [lidocaine]
Physical appearance and chemical compatibility in solvent blends: retained their physical appearance
